Assay results taken from US9670194B2 (Calitor Sciences, LLC, priority 2013, dated 2017).

What was measured:
[1] = Compound stability in human liver microsomes; assay type: in vitro ADME; settings: for half-life at 5 μM: human liver microsomes 0.5 mg protein/mL, compound 5 μM, NADPH 1.0 mM, 37° C.; for CLint scaled at 5 μM: human liver microsomes, in vivo CLint extrapolated
[2] = Compound stability in rat liver microsomes; assay type: in vitro ADME; settings: pH 7.4; for half-life at 5 μM: rat liver microsomes 0.5 mg protein/mL, compound 5 μM, NADPH 1.0 mM, 37° C.; for CLint scaled at 5 μM: rat liver microsomes, in vivo CLint extrapolated
[3] = Pharmacokinetics after intravenous and oral administration in rats; assay type: in vivo, rat; settings: for clearance (CL) / AUC(0-t) / half-life / Vd: iv dosing, dose 1 mg/kg; for bioavailability / AUC(0-t) / half-life / Vd: rat, plasma; for bioavailability: iv dose 1 mg/kg, oral dose generally 5 or 10 mg/kg; for Vd: read-out: Vss
PI3K (p110β/p85α) (h) = PI3K (p110β/p85α) (h) (Homo sapiens (Human), UniProt P42338); assay: PI3K (p110β/p85α) (h) non-radioactive HTRF kinase assay; assay type: biochemical
PI3K (p110δ/p85α) (h) = PI3K (p110δ/p85α) (h) (Homo sapiens (Human), UniProt O00329); assay: PI3K (p110δ/p85α) (h) non-radioactive HTRF kinase assay; assay type: biochemical
Chain of PI3K (p110δ/p85α) (h) (O00329 whole entry): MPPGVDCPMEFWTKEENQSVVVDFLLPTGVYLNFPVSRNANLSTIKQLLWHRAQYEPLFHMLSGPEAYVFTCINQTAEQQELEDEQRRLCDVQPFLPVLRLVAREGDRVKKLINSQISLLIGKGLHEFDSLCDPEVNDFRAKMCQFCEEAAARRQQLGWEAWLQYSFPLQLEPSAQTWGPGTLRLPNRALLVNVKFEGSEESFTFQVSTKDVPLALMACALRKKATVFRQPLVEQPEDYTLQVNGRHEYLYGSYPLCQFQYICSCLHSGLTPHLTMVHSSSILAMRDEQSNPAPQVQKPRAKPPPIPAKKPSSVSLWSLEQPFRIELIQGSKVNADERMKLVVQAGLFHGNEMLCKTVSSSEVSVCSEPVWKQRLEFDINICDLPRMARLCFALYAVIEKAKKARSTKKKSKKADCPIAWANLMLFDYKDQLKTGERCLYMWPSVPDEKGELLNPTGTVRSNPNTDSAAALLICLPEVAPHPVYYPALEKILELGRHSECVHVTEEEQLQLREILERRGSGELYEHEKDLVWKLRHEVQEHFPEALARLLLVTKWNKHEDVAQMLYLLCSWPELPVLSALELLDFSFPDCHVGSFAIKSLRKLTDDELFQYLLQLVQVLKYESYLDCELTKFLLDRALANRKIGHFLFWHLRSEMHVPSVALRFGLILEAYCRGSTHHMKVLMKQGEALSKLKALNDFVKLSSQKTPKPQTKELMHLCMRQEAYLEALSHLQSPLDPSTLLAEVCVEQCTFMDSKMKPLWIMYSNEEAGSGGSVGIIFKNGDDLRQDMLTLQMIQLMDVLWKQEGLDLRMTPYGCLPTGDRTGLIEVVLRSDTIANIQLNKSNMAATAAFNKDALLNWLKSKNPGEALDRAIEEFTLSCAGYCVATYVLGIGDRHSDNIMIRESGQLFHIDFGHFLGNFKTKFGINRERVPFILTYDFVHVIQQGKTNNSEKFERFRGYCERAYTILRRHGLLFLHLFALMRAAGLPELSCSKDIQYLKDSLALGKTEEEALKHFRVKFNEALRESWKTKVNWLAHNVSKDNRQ
Chain of PI3K (p110δ/p85α) (h) (P27986 whole entry partner): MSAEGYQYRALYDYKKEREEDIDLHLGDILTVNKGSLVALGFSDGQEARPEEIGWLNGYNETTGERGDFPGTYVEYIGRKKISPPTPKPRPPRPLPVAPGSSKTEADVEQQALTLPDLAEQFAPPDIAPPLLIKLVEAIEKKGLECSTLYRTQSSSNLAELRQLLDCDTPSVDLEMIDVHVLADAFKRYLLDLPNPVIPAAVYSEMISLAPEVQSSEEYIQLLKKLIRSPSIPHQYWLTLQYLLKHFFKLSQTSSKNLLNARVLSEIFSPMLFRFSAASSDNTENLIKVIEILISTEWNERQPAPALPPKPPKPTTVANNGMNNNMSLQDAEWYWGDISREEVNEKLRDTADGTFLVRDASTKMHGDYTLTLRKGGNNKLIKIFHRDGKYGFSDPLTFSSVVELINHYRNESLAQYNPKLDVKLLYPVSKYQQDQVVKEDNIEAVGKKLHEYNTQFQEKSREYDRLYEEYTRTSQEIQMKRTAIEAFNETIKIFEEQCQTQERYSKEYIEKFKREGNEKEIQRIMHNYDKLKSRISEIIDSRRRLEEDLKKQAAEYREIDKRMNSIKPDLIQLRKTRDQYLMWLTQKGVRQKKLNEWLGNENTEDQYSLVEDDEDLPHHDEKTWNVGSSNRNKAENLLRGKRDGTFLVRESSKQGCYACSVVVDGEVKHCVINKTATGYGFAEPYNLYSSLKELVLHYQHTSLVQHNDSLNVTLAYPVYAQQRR

Chain of PI3K (p110β/p85α) (h) (P42338 whole entry): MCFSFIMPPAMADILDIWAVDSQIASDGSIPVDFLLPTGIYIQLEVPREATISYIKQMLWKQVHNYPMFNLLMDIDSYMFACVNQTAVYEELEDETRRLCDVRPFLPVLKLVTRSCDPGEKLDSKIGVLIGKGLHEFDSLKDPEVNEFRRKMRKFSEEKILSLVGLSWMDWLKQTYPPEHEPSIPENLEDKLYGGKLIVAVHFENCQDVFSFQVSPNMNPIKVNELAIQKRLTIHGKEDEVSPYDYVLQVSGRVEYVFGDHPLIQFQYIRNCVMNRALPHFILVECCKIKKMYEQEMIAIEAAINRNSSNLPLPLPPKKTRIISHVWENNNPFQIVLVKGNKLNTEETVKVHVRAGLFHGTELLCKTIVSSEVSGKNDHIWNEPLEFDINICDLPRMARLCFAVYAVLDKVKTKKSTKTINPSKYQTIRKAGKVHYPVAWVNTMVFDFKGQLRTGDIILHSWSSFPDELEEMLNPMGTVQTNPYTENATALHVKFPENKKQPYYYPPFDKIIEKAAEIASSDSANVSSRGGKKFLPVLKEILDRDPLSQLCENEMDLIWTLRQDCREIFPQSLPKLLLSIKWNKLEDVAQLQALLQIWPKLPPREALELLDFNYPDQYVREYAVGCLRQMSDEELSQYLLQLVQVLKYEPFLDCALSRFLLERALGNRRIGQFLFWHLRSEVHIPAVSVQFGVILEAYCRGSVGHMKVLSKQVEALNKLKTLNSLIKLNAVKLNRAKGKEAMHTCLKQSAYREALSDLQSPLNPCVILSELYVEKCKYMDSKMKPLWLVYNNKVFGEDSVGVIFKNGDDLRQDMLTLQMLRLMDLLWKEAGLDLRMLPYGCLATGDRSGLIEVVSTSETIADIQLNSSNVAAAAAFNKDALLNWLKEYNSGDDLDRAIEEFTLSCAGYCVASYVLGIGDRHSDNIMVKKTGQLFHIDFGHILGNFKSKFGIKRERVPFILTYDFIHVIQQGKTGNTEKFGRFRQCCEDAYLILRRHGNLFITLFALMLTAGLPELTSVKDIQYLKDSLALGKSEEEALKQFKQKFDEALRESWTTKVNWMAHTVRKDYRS
Chain of PI3K (p110β/p85α) (h) (P27986 whole entry partner): as the sequence (P27986 whole entry partner) above

half-life at 5 μM [1] [min]	CLint scaled at 5 μM [1] [mL/min/kg]	half-life at 5 μM [2] [min]	CLint scaled at 5 μM [2] [mL/min/kg]	clearance (CL) [3] [mL/min/kg]	bioavailability [3] [%]	AUC(0-t) [3] [ng·h/mL]	half-life [3] [min]	Vd [3] [L/kg]	IC50 (PI3K (p110β/p85α) (h)) [nM]	IC50 (PI3K (p110δ/p85α) (h)) [nM]	Structure (SMILES)
19.4	89.7	10.5	237	54.8	45.7	300	79.8	5.82	2780	246	CC[C@H](Nc1ncnc(N)c1-c1ncc(C)o1)c1nc2cccc(Cl)c2c(=O)n1C1CC1 [Ex. 7, (S)-2-(1-((6-amino-5-(5-methyloxazol-2-yl)pyrimidin-4-yl)amino)propyl)-5-chloro-3-cyclopropylquinazolin-4(3H)-one]
22.6	76.9	18.2	136	27.3	59.8	609	115	1.64	–	135	CC[C@H](Nc1ncnc(N)c1-c1ccn(C)n1)c1nc2cccc(Cl)c2c(=O)n1C1CC1 [Ex. 51, (S)-2-(1-((6-amino-5-(1-methyl-1H-pyrazol-3-yl)pyrimidin-4-yl)amino)propyl)-5-chloro-3-cyclopropylquinazolin-4(3H)-one]
28	62.1	34.1	72.9	38.2	97.3	429	97.2	3.88	–	239	CC[C@H](Nc1ncnc(N)c1-c1ncn(C)n1)c1nc2cccc(Cl)c2c(=O)n1C1CC1 [Ex. 53, (S)-2-(1-((6-amino-5-(1-methyl-1H-1,2,4-triazol-3-yl)pyrimidin-4-yl)amino)-propyl)-5-chloro-3-cyclopropylquinazolin-4(3H)-one]
20	87	20.4	122	74.7	60.9	217	104	8.12	–	9	CCc1noc(-c2c(N)ncnc2N[C@@H](CC)c2nc3cccc(Cl)c3c(=O)n2C2CC2)n1 [Ex. 56, (S)-2-(1-((6-amino-5-(3-ethyl-1,2,4-oxadiazol-5-yl)pyrimidin-4-yl)amino)-propyl)-5-chloro-3-cyclopropylquinazolin-4(3H)-one]
50.4	34.5	46.2	53.7	71.8	27.7	238	81	6.11	–	37	CC[C@H](Nc1ncnc(N)c1-c1nc(C)no1)c1nc2cccc(Cl)c2c(=O)n1[C@@H]1C[C@@H]1F [Ex. 62, 2-((S)-1-((6-amino-5-(3-methyl-1,2,4-oxadiazol-5-yl)pyrimidin-4-yl)amino)propyl)-5-chloro-3-((1R,2S)-2-fluorocyclopropyl)quinazolin-4(3H)-one]

Further lines, the compound ahead of its results:

Structure (SMILES)	half-life at 5 μM [1] [min]	CLint scaled at 5 μM [1] [mL/min/kg]	half-life at 5 μM [2] [min]	CLint scaled at 5 μM [2] [mL/min/kg]	clearance (CL) [3] [mL/min/kg]	bioavailability [3] [%]	AUC(0-t) [3] [ng·h/mL]	half-life [3] [min]	Vd [3] [L/kg]	IC50 (PI3K (p110β/p85α) (h)) [nM]	IC50 (PI3K (p110δ/p85α) (h)) [nM]
CC[C@H](Nc1ncnc(N)c1C1=N[C@@H](C)CO1)c1nc2cccc(Cl)c2c(=O)n1-c1ccccc1 [Ex. 6, 2-((S)-1((6-amino-5-((S)-4-methyl-4,5-dihydrooxazol-2-yl)pyrimidin-4-yl)amino)propyl)-5-chloro-3-phenylquinazolin-4(3H)-one]	3.11	560	3.44	722	110	5.56	151	69	6.75	> 3000	99
CC[C@H](Nc1ncnc(N)c1-c1nnc(C)o1)c1nc2cccc(C)c2c(=O)n1-c1ccccc1C [Ex. 31, (S)-2-(1-((6-amino-5-(5-methyl-1,3,4-oxadiazol-2-yl)pyrimidin-4-yl)amino)propyl)-5-methyl-3-(o-tolyl)quinazolin-4(3H)-one]	7.56	328	7.27	342	64.8	16.2	260	42	3.42	–	18
CC[C@H](Nc1ncnc(N)c1-c1ncn(C)n1)c1nc2cccc(Cl)c2c(=O)n1-c1ccccc1 [Ex. 32, (S)-2-(1-((6-amino-5-(1-methyl-1H-1,2,4-triazol-3-yl)pyrimidin-4-yl)amino)-propyl)-5-chloro-3-phenylquinazolin-4(3H)-one]	17.4	100	20	124	43.3	61	390	37.8	1.51	–	70
Cc1nc(-c2c(N)ncnc2N[C@@H](C)c2nc3cccc(Cl)c3c(=O)n2C2CC2)no1 [Ex. 33, (S)-2-(1-((6-amino-5-(5-methyl-1,2,4-oxadiazol-3-yl)pyrimidin-4-yl)amino)-ethyl)-5-chloro-3-cyclopropylquinazolin-4(3H)-one]	11.9	146	8.68	286	65.5	5.59	241	432	14.3	–	67
CC[C@H](Nc1ncnc(N)c1-c1nc(C)no1)c1nc2cccc(C)c2c(=O)n1-c1ccccc1 [Ex. 37, (S)-2-(1-((6-amino-5-(3-methyl-1,2,4-oxadiazol-5-yl)pyrimidin-4-yl)amino)-propyl)-5-methyl-3-phenylquinazolin-4(3H)-one]	5.3	328	7.2	345	67.5	24.6	246	80.4	4.9	–	6
CC[C@H](Nc1ncnc(N)c1-c1nnc(C)o1)c1nc2cccc(C)c2c(=O)n1-c1ccccc1 [Ex. 38, (S)-2-(1-((6-amino-5-(5-methyl-1,3,4-oxadiazol-2-yl)pyrimidin-4-yl)amino)-propyl)-5-methyl-3-phenylquinazolin-4(3H)-one]	16	109	8.57	290	71.3	36.6	236	39.3	3.05	–	12
CC[C@H](Nc1ncnc(N)c1-c1nnc(C)o1)c1nc2cccc(F)c2c(=O)n1-c1ccccc1 [Ex. 40, (S)-2-(1-((6-amino-5-(5-methyl-1,3,4-oxadiazol-2-yl)pyrimidin-4-yl)amino)-propyl)-5-fluoro-3-phenylquinazolin-4(3H)-one]	28	62.1	12.6	198	57.3	112	292	40.2	2.99	–	93
C[C@H](Nc1ncnc(N)c1-c1ncn(C)n1)c1nc2cccc(Cl)c2c(=O)n1C1CC1 [Ex. 44, (S)-2-(1-((6-amino-5-(1-methyl-1H-1,2,4-triazol-3-yl)pyrimidin-4-yl)amino)-ethyl)-5-chloro-3-cyclopropylquinazolin-4(3H)-one]	13.6	128	13	191	73.7	14	231	34.2	2.51	–	358
CC(C)c1noc(-c2c(N)ncnc2N[C@@H](C)c2nc3cccc(Cl)c3c(=O)n2C2CC2)n1 [Ex. 57, (S)-2-(1-((6-amino-5-(3-isopropyl-1,2,4-oxadiazol-5-yl)pyrimidin-4-yl)amino)-ethyl)-5-chloro-3-cyclopropylquinazolin-4(3H)-one]	18.2	95.2	10.4	239	83	12.1	199	59.4	5.84	–	6
CC(C)c1nc(-c2c(N)ncnc2N[C@@H](C)c2nc3cccc(Cl)c3c(=O)n2C2CC2)no1 [Ex. 59, (S)-2-(1-((6-amino-5-(5-isopropyl-1,2,4-oxadiazol-3-yl)pyrimidin-4-yl)amino)ethyl)-5-chloro-3-cyclopropylquinazolin-4(3H)-one]	6.66	261	3.36	739	73.7	3.27	229	115	7.32	–	20
CCc1nc(-c2c(N)ncnc2N[C@@H](C)c2nc3cccc(Cl)c3c(=O)n2C2CC2)no1 [Ex. 61, (S)-2-(1-((6-amino-5-(5-ethyl-1,2,4-oxadiazol-3-yl)pyrimidin-4-yl)amino)ethyl)-5-chloro-3-cyclopropylquinazolin-4(3H)-one]	6.07	286	3.29	755	97.5	–	169	60	7.07	–	44
